Here are results for 7 compounds from patent US9145352B2, “Quaternary N-(halomethyl) ammonium salts as therapeutic agents” (UNIVERSIDAD DE CALDAS, priority 2012, dated 2015).

One experiment concerns L. major promastigotes. The following applies: cited from earlier work.
Experiment [1] has as its system amastigotes of L. (V) panamensis that have infected macrophage cells. The experiment in a line: in vitro effectiveness against L. (V) panamensis amastigotes that have infected macrophage cells. The class given is cell-based. As for the experimental part:
Given that Leishmania parasites are known to infect monocyte cells, mostly macrophages and neutrophils, the in vitro effectiveness of some of the compounds was also tested on L. (V) panamensis in the amastigote stage that have been set to infect macrophage cells. FIG. 5 contains the list of compounds evaluated.
On the other hand, the results of the in vitro activity study of some […] N-(HALOMETHYL) AMMONIUM SALTS AS […] AGENTS shown in FIG. 5 against infected macrophage cells with Leishmania panamesis are shown in FIG. 8.

Experiment [2] deals with axenic amastigotes of L. (V) panamensis. The experiment in a line: in vitro effectiveness against axenic amastigotes of L. (V) panamensis. The class given is cell-based. The source says: Then, a series of compounds analogous to compound 3 (characterized by a tail G being a diarylalkenyl moiety) were synthesized in order to assess their in vitro effectiveness against L. (V) panamensis, a pathogenic species which causes human mucocutaneous leishmaniasis. Other halogenated analogs of choline were also synthesized and included in this in vitro effectiveness study. FIG. 2 illustrates the compounds evaluated for their in vitro effectiveness against axenic amastigotes of L. (V) panamensis.
The table shown in FIG. 7 contains the EC50 values (molar amount of compound that kills 50% of parasites in sample) obtained against axenic amastigotes of L. (V) panamensis. […] N-(HALOMETHYL) AMMONIUM SALTS AS […] AGENTS were compared with the respective non-halogenated (i.e. N,N,N-trimethyl quaternary ammonium salts) and with two compounds commonly used to treat leishmaniasis (meglumine antimoniate and amphotericin B).

Another experiment concerns Chagas disease. Particulars: given soon after infection at the onset of the acute phase; cited from earlier work.
The test system of a further experiment is Indian visceral disease. Particulars: cited from earlier work.
The test system of experiment [3] is choline kinase of L. (L) infantum. The experiment in a line: kinetic studies with choline kinase. The class given is biochemical. The following applies: lowering its catalytic efficiency. The source says:
(§1) Phosphatidyl choline can be synthesized by the parasite following the traditional Kennedy pathway (Zhang and Beverley, 2010), in which choline is converted to phosphatidyl choline via a sequence of steps, each catalyzed by a specific enzyme. The first step involves the phosphorylation of choline with the enzyme choline kinase.

Experiment [4] relates to promastigotes of L. tarentolae. The experiment in a line: in vitro production of phosphatidyl choline by parasites. The class given is cell-based.
Text: as §1

The subject of experiment [5] is promastigotes of L. tarentolae. Briefly: in vitro uptake of choline by promastigotes. The experiment is classed as cell-based.
Text: as §1

Experiment [6] concerns cutaneous leishmaniasis lesion. Briefly: golden hamster model for cutaneous leishmaniasis. The class given is in vivo. The following applies: topical application in aqueous buffer (neutral pH) daily for ten days. As for the experimental part: It was decided then to carry out a preliminary in vivo animal study according to standard practices using the golden hamster model for cutaneous leishmaniasis, using the compounds with the better profile as therapeutic agents against leishmaniasis. For that purpose the in vivo effectiveness of compounds 3b, 13b and 14c were tested FIG. 6.
It was decided then to carry out a small in vivo animal study according to standard practices using the golden hamster model for cutaneous leishmaniasis. For that purpose the in vivo effectiveness of compounds 3b, 13b and 14c were tested. Treatment consisted of a topical application of the compound suspended in an aqueous buffer (neutral pH) daily for ten days.

Read-outs that look alike come from different tables or passages of the source.

As to `CCCCCCCCCCCC[N+](C)(C)C.[Br-]` [dodecyltrimethyl ammonium bromide], the “growth of L. major promastigotes” value in the experiment on L. major promastigotes is reported as “inhibit the growth”.

On to `CCCCCCCCCCCCCCCCCC[N+](C)(C)C.[Br-]` [octadecyltrimethyl ammonium bromide], for which the “growth of L. major promastigotes” value with L. major promastigotes was “inhibit the growth”.

In the case of meglumine antimoniate, the “EC50 against infected macrophage cells with L. (V) panamensis” value in experiment [1] was 6.33 ± 0.86 µg/mL. The midpoint of the response in experiment [2], the EC50, lay at 312 ± 18.6 µM.

Regarding `O=C(Cn1ccnc1[N+](=O)[O-])NCc1ccccc1` [benznidazole], in the experiment on Chagas disease, the “effective in curing the disease” value is recorded as roughly 100%.

For `C[C@@H]1[C@H](O)[C@@H](C)/C=C/C=C/C=C/C=C/C=C/C=C/C=C/[C@H](O[C@@H]2O[C@H](C)[C@@H](O)[C@H](N)[C@@H]2O)C[C@@H]2O[C@](O)(C[C@@H](O)C[C@@H](O)[C@H](O)CC[C@@H](O)C[C@@H](O)CC(=O)O[C@H]1C)C[C@H](O)[C@H]2C(=O)O` [amphotericin B], the “EC50 against infected macrophage cells with L. (V) panamensis” value in experiment [1] was 0.05 ± 0.001 µg/mL. The concentration for a half-maximal effect (EC50) in experiment [2] was found to be 0.041 ± 0.001 µM. For the same compound, the “effective against the Indian visceral disease” value was 90% with Indian visceral disease (dose of 5-10 mg/kg) and 100% in the experiment on Indian visceral disease (total dose of 15 mg/kg body weight).

Turning to `C[N+](C)(CI)CCCCC=C(c1ccccc1)c1ccccc1` [Compound 14a], the “inhibition of choline kinase” value in experiment [3] is “able to inhibit this enzyme”. For the same compound, the “relative effectiveness against axenic amastigotes of L. (V) panamensis” value in experiment [2] (FIG. 7) is given as “the most effective”. In experiment [4], the “production of phosphatidyl choline” value is listed as “inhibits the in vitro production of phosphatidyl choline”. Further, the “uptake of choline by promastigotes” value in experiment [5] was “interferes with the in vitro uptake of choline”.

On to `C[N+](C)(CCl)CCC=C(c1ccccc1)c1ccccc1` [Compound 13b], for which, in experiment [6], the cure of animals result is reported as “cure of the majority of the animals”.
